Laboratory results published in ChEMBL document CHEMBL1255545, “Synthesis and evaluation of 1,2,4-triazolo[1,5-c]pyrimidine derivatives as A2A receptor-selective antagonists” (Bioorg Med Chem Lett, 2010).

Experiments:
Assay type in all cases: cell-based
Adenosine receptor A2a = Adenosine receptor A2a (Homo sapiens, UniProt P29274); experiment: Displacement of [3H]CGS21680 from human adenosine A2A receptor expressed in HEK293 cells at 10 uM
[1] = molecular target: T1, Adenosine receptor A3 (Homo sapiens) (UniProt P0DMS8); experiment: Displacement of [125I]I-AB-MECA from human adenosine A3 receptor expressed in CHO cells at 10 uM
T1 sequence (whole entry): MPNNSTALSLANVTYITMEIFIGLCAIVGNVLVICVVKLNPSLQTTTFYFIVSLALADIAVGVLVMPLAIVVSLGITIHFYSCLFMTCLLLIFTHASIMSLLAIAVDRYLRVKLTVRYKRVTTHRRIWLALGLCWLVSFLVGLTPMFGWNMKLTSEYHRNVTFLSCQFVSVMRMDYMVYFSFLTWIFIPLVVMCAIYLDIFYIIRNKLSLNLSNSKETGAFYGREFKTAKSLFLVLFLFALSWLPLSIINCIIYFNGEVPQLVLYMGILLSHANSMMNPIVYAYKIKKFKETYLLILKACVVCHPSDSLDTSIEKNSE

[2] = molecular target: T2, Adenosine receptor A1 (Homo sapiens) (UniProt P30542); experiment: Displacement of [3H]CCPA from human adenosine A1 receptor expressed in CHO cells at 10 uM
T2 sequence (whole entry): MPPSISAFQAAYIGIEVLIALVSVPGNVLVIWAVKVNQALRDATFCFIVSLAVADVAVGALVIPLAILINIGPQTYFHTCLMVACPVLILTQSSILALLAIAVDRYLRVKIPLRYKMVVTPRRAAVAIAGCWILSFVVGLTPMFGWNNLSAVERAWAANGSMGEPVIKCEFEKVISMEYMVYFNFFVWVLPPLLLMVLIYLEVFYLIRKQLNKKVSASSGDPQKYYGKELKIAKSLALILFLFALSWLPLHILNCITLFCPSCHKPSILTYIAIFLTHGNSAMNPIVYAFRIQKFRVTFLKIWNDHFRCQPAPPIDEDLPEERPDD

Adenosine receptor A3 = molecular target: T3, Adenosine receptor A3 (Homo sapiens, UniProt P0DMS8); experiment: Displacement of [125I]I-AB-MECA from human adenosine A3 receptor expressed in CHO cells
T3 sequence (P0DMS8 whole entry): T1 sequence (whole entry)

Chain of Adenosine receptor A2a (P29274 whole entry): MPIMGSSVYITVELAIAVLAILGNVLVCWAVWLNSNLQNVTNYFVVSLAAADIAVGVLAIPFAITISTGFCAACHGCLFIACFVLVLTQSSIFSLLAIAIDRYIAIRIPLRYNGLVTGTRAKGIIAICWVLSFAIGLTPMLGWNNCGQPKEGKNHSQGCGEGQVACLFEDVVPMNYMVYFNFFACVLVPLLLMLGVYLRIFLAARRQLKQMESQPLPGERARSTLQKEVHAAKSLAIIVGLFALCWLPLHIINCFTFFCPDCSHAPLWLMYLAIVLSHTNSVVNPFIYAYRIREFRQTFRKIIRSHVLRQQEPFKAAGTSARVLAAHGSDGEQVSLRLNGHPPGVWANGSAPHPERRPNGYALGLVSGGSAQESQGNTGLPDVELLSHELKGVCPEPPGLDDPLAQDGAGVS

Ki (Adenosine receptor A2a) | inhibition [1] | inhibition [2] | Ki (Adenosine receptor A3) | SMILES
11.7 nM | 36.5% | 17.9% | – | CCCOc1ccc(CCCn2ncc3c2nc(N)n2nc(-c4ccco4)nc32)cc1
23.9 nM | 57.8% | 47.9% | – | Nc1nc2c(cnn2CCCc2ccc(OCCO)cc2)c2nc(-c3ccco3)nn12
12.4 nM | 59.6% | 42.7% | – | Nc1nc2c(cnn2CCCc2ccc(OCCF)cc2)c2nc(-c3ccco3)nn12
43.9 nM | – | 4.8% | 4940 nM | CCOc1ccc(CCCn2ncc3c2nc(N)n2nc(-c4ccco4)nc32)cc1
14.4 nM | 44.8% | 25.5% | – | C=CCCOc1ccc(CCCn2ncc3c2nc(N)n2nc(-c4ccco4)nc32)cc1

More lines, now with the values behind:

SMILES | Ki (Adenosine receptor A2a) | inhibition [1] | inhibition [2] | Ki (Adenosine receptor A3)
Nc1nc2c(cnn2CCCc2ccc(O/C=C/c3ccccc3)cc2)c2nc(-c3ccco3)nn12 | 308 nM | 17.8% | 7.3% | –
Nc1nc2c(cnn2CCCc2ccc(OCCc3ccccc3)cc2)c2nc(-c3ccco3)nn12 | 78.9 nM | 18.2% | 6.9% | –
COc1ccc(CCCn2ncc3c2nc(N)n2nc(-c4ccco4)nc32)cc1 | – | 67.4% | 38.4% | –
CCC(C)Oc1ccc(CCCn2ncc3c2nc(N)n2nc(-c4ccco4)nc32)cc1 (stereo not drawn) | 22.1 nM | 41.9% | 16.8% | –
Nc1nc2c(cnn2CCCc2ccc(O)cc2)c2nc(-c3ccco3)nn12 | 48.3 nM | 34.2% | 44.3% | –
C=CCOc1ccc(CCCn2ncc3c2nc(N)n2nc(-c4ccco4)nc32)cc1 | 9 nM | 62.5% | 32.8% | –
CC(C)Oc1ccc(CCCn2ncc3c2nc(N)n2nc(-c4ccco4)nc32)cc1 | 13.3 nM | 72.8% | 35% | –
CS(=O)(=O)OCCOc1ccc(CCCn2ncc3c2nc(N)n2nc(-c4ccco4)nc32)cc1 | 45.7 nM | 62.4% | 27.8% | –
